Reference: the NIST ThermoML archive (doi:10.1021/acs.jced.5b00654)
“And” between values parts separate entries of the source, which are not always exact repeats. Identical values can stand only once.

Settings: Fluid (supercritical or subcritical phases); for viscosity: Vibrating wire viscometry; for mass density: Buoyancy - hydrostatic balance with magnetic suspension - one sinker

CCCC [butane]
Settings	mass density	viscosity
428.09 K, 5150.2 kPa	–	0.04428 mPa·s
428.1 K, 796.14 kPa	14.038 kg/m3	0.01066 mPa·s
428.1 K, 796.19 kPa	14.041 kg/m3	0.01066 mPa·s
428.1 K, 904.9 kPa	16.138 kg/m3	0.01069 mPa·s
428.1 K, 1964.1 kPa	40.163 kg/m3	0.01117 mPa·s
428.1 K, 4625.9 kPa	341.66 kg/m3	0.04038 mPa·s
428.11 K, 131.61 kPa	2.1741 kg/m3	0.01052 mPa·s
428.11 K, 131.64 kPa	2.1741 kg/m3	0.01052 mPa·s
428.11 K, 904.86 kPa	16.141 kg/m3	0.01069 mPa·s
428.11 K, 1964.3 kPa	40.167 kg/m3	0.01118 mPa·s
428.11 K, 4626.6 kPa	341.66 kg/m3	0.04035 mPa·s
428.11 K, 4626.8 kPa	341.65 kg/m3	0.04033 mPa·s
428.12 K, 685.03 kPa	11.939 kg/m3	0.01063 mPa·s
428.12 K, 2306.2 kPa	49.889 kg/m3 and 49.887 kg/m3	0.01144 mPa·s
428.12 K, 3964.9 kPa	218.37 kg/m3	0.02262 mPa·s
428.12 K, 3984.8 kPa	246.5 kg/m3	0.02576 mPa·s
428.12 K, 3984.9 kPa	246.49 kg/m3	0.02577 mPa·s
428.13 K, 480.91 kPa	8.2126 kg/m3	0.01059 mPa·s
428.13 K, 578.67 kPa	9.9774 kg/m3	0.01061 mPa·s
428.13 K, 684.54 kPa	11.929 kg/m3	0.01063 mPa·s
428.13 K, 2624.6 kPa	60.353 kg/m3	0.01177 mPa·s
428.13 K, 2624.7 kPa	60.36 kg/m3	0.01177 mPa·s
428.13 K, 2862.9 kPa	69.476 kg/m3	0.01209 mPa·s
428.13 K, 3655.2 kPa	119.22 kg/m3	0.01443 mPa·s
428.13 K, 3964.8 kPa	218.33 kg/m3	0.02263 mPa·s
428.13 K, 3990.1 kPa	251.58 kg/m3 and 251.63 kg/m3	0.02637 mPa·s and 0.02638 mPa·s
428.13 K, 5948.9 kPa	378 kg/m3	0.04846 mPa·s
428.13 K, 5949.6 kPa	378.01 kg/m3 and 378.02 kg/m3	0.04837 mPa·s and 0.04844 mPa·s
428.14 K, 480.81 kPa	8.2112 kg/m3	0.01059 mPa·s
428.14 K, 578.76 kPa	9.9803 kg/m3	0.01061 mPa·s
428.14 K, 1041.2 kPa	18.856 kg/m3	0.01073 mPa·s
428.14 K, 2862.8 kPa	69.471 kg/m3	0.01209 mPa·s
428.14 K, 3427.1 kPa	99.322 kg/m3	0.01338 mPa·s
428.14 K, 3655.7 kPa	119.23 kg/m3	0.01444 mPa·s
428.14 K, 4145.9 kPa	304.6 kg/m3	0.03374 mPa·s
428.14 K, 4146.2 kPa	304.61 kg/m3	0.03373 mPa·s
428.14 K, 30018 kPa	498.2 kg/m3	0.09505 mPa·s
428.14 K, 30022 kPa	498.2 kg/m3	0.09486 mPa·s
428.14 K, 30023 kPa	498.21 kg/m3	0.09498 mPa·s
428.15 K, 1040.7 kPa	18.847 kg/m3	0.01073 mPa·s
428.15 K, 3263.7 kPa	88.854 kg/m3	0.01288 mPa·s
428.15 K, 3427.2 kPa	99.316 kg/m3	0.01337 mPa·s
428.15 K, 4067.3 kPa	289 kg/m3	0.03129 mPa·s
428.15 K, 4067.5 kPa	288.98 kg/m3	0.03132 mPa·s
428.15 K, 12773 kPa	440.28 kg/m3	0.06754 mPa·s
428.15 K, 17075 kPa	460.12 kg/m3	0.07551 mPa·s
428.15 K, 17077 kPa	460.12 kg/m3	0.07561 mPa·s
428.16 K, 62.1 kPa	1.0176 kg/m3	0.01051 mPa·s
428.16 K, 3263.8 kPa	88.856 kg/m3	0.01289 mPa·s
428.16 K, 7467.1 kPa	399.68 kg/m3	0.05418 mPa·s
428.16 K, 7467.5 kPa	399.69 kg/m3	0.05413 mPa·s
428.16 K, 9661.1 kPa	420.21 kg/m3	0.06045 mPa·s
428.16 K, 9662.3 kPa	420.22 kg/m3	0.06047 mPa·s
428.16 K, 12732 kPa	440.05 kg/m3	0.06741 mPa·s
428.16 K, 12735 kPa	440.06 kg/m3	0.06744 mPa·s
428.17 K, 62.1 kPa	1.0183 kg/m3	0.01051 mPa·s
428.17 K, 3976.1 kPa	230.45 kg/m3	0.02394 mPa·s
428.17 K, 7466.2 kPa	399.67 kg/m3	0.05411 mPa·s
428.18 K, 62.1 kPa	1.0176 kg/m3	0.01051 mPa·s
428.18 K, 1098.5 kPa	20.025 kg/m3	0.01075 mPa·s
428.18 K, 1099.1 kPa	20.038 kg/m3	0.01075 mPa·s
428.18 K, 3790.9 kPa	137.62 kg/m3	0.01558 mPa·s
428.18 K, 3953.3 kPa	199.18 kg/m3	0.02063 mPa·s
428.18 K, 3976.3 kPa	230.48 kg/m3	0.02395 mPa·s
428.18 K, 4312 kPa	322.22 kg/m3	0.03673 mPa·s
428.18 K, 4312.4 kPa	322.24 kg/m3 and 322.25 kg/m3	0.03673 mPa·s and 0.03668 mPa·s
428.19 K, 3883.8 kPa	159.22 kg/m3	0.01712 mPa·s
428.19 K, 3884.1 kPa	159.21 kg/m3	0.01712 mPa·s
428.19 K, 3938.7 kPa	185.24 kg/m3	0.01931 mPa·s
428.19 K, 3939.2 kPa	185.3 kg/m3	0.01933 mPa·s
428.19 K, 3953.5 kPa	199.12 kg/m3	0.02064 mPa·s
428.2 K, 3793.8 kPa	137.58 kg/m3	0.01557 mPa·s
428.2 K, 4030 kPa	274.89 kg/m3	0.02934 mPa·s
428.2 K, 4030.1 kPa	274.9 kg/m3	0.02934 mPa·s
428.2 K, 22973 kPa	480.02 kg/m3	0.08495 mPa·s
428.21 K, 1539.8 kPa	29.634 kg/m3	0.01094 mPa·s
428.21 K, 1540.1 kPa	29.642 kg/m3	0.01093 mPa·s
428.21 K, 22974 kPa	480.02 kg/m3	0.08503 mPa·s and 0.08492 mPa·s
428.22 K, 3107.8 kPa	80.455 kg/m3	0.01252 mPa·s
428.23 K, 3108.6 kPa	80.486 kg/m3	0.01253 mPa·s
428.34 K, 3805.1 kPa	138.83 kg/m3	0.01567 mPa·s
428.39 K, 3806.5 kPa	138.8 kg/m3	0.01569 mPa·s
448.09 K, 4846.2 kPa	174.16 kg/m3	0.01886 mPa·s
448.11 K, 5054.5 kPa	201.47 kg/m3	0.02122 mPa·s
448.11 K, 5054.8 kPa	201.47 kg/m3	0.02124 mPa·s
448.11 K, 6144.8 kPa	304.18 kg/m3	0.0341 mPa·s
448.11 K, 6145 kPa	304.17 kg/m3	0.0341 mPa·s
448.13 K, 4161.6 kPa	114.81 kg/m3	0.01481 mPa·s and 0.01479 mPa·s
448.13 K, 4847 kPa	174.1 kg/m3	0.01885 mPa·s
448.13 K, 5203.2 kPa	222.02 kg/m3	0.02331 mPa·s
448.13 K, 5203.5 kPa	222.03 kg/m3	0.02333 mPa·s
448.13 K, 7189.8 kPa	340.36 kg/m3	0.04055 mPa·s
448.14 K, 7191 kPa	340.37 kg/m3	0.04061 mPa·s
448.14 K, 18184 kPa	440.74 kg/m3	0.06811 mPa·s
448.14 K, 18187 kPa	440.74 kg/m3	0.06813 mPa·s
448.14 K, 29460 kPa	478.91 kg/m3	0.08497 mPa·s
448.15 K, 220.17 kPa	3.4915 kg/m3	0.01102 mPa·s
448.15 K, 618.43 kPa	10.135 kg/m3	0.0111 mPa·s
448.15 K, 618.6 kPa	10.141 kg/m3	0.01109 mPa·s
448.15 K, 807.6 kPa	13.453 kg/m3	0.01114 mPa·s
448.15 K, 1661.9 kPa	30.078 kg/m3	0.01146 mPa·s
448.15 K, 3073.3 kPa	66.943 kg/m3	0.01257 mPa·s
448.15 K, 5551.9 kPa	263.05 kg/m3	0.02811 mPa·s
448.15 K, 5553.7 kPa	263.02 kg/m3	0.02811 mPa·s
448.15 K, 11528 kPa	400.23 kg/m3	0.05478 mPa·s
448.15 K, 11529 kPa	400.23 kg/m3	0.05477 mPa·s
448.15 K, 14319 kPa	420.46 kg/m3	0.06101 mPa·s
448.15 K, 29472 kPa	478.91 kg/m3	0.08489 mPa·s
448.16 K, 220.38 kPa	3.4965 kg/m3	0.01101 mPa·s
448.16 K, 430.17 kPa	6.9362 kg/m3	0.01106 mPa·s
448.16 K, 431.02 kPa	6.95 kg/m3	0.01106 mPa·s
448.16 K, 508.5 kPa	8.2591 kg/m3	0.01107 mPa·s
448.16 K, 509.69 kPa	8.28 kg/m3	0.01107 mPa·s
448.16 K, 807.76 kPa	13.456 kg/m3	0.01115 mPa·s
448.16 K, 1662.2 kPa	30.086 kg/m3	0.01146 mPa·s
448.16 K, 2073.7 kPa	39.305 kg/m3	0.01169 mPa·s
448.16 K, 2511.8 kPa	50.321 kg/m3	0.01201 mPa·s
448.16 K, 2512.1 kPa	50.329 kg/m3	0.012 mPa·s
448.16 K, 3073.3 kPa	66.941 kg/m3	0.01257 mPa·s
448.16 K, 6551.1 kPa	321.12 kg/m3	0.03695 mPa·s
448.16 K, 6551.4 kPa	321.12 kg/m3	0.03694 mPa·s
448.16 K, 8139.4 kPa	359.98 kg/m3	0.04474 mPa·s
448.16 K, 8140.6 kPa	359.99 kg/m3	0.04466 mPa·s
448.16 K, 23152 kPa	460.08 kg/m3	0.07601 mPa·s
448.17 K, 1158.4 kPa	19.932 kg/m3	0.01125 mPa·s
448.17 K, 2073 kPa	39.287 kg/m3	0.01169 mPa·s
448.17 K, 4498.3 kPa	138.72 kg/m3	0.01627 mPa·s
448.17 K, 5346.6 kPa	240.34 kg/m3	0.02533 mPa·s
448.17 K, 9537.4 kPa	380.12 kg/m3	0.04948 mPa·s
448.17 K, 9538.6 kPa	380.13 kg/m3	0.0494 mPa·s
448.17 K, 14321 kPa	420.46 kg/m3	0.06093 mPa·s
448.17 K, 23154 kPa	460.09 kg/m3	0.07593 mPa·s
448.18 K, 3433.7 kPa	79.735 kg/m3	0.01307 mPa·s
448.18 K, 3433.9 kPa	79.739 kg/m3	0.01308 mPa·s
448.18 K, 3747.8 kPa	92.905 kg/m3	0.01367 mPa·s
448.18 K, 4498.1 kPa	138.68 kg/m3	0.01625 mPa·s
448.18 K, 5346.7 kPa	240.34 kg/m3	0.02534 mPa·s
448.19 K, 3747.9 kPa	92.91 kg/m3	0.01367 mPa·s
448.23 K, 4727 kPa	160.07 kg/m3	0.01777 mPa·s
448.23 K, 4727.1 kPa	160.07 kg/m3	0.01776 mPa·s
448.27 K, 5784.6 kPa	281.65 kg/m3	0.03063 mPa·s
448.28 K, 5785.1 kPa	281.66 kg/m3	0.03066 mPa·s
